Holding throughout (format): cell-based
Data set [1] deals with HepG2 cells. Briefly: MTT toxicity assay. The conditions noted are these: 24 h; for GI50: Homo sapiens, test materials 100-500 μM, linear regression. As for the experimental part:
The cytotoxic effect was analyzed by using the MTT assay as described by Mosmann, J. Immunol Methods. 65:55-63 (1983), with minor modification. HepG2 cells were seeded at 5×10^3 cells/well into a 96-well plate and incubated for 24 h. Spent media was then replaced with fresh media containing test materials (100-500 μM) dissolved in DMSO. Vehicle control cells were treated only with DMSO. The plates were incubated in a CO2 incubator for 24 h. The spent media was then replaced with sterile MTT solution (5 mg/mL in PBS at pH—7.4; 100 μL/well) and incubated for another 3 h. The unreacted MTT dye was removed, and the formazan crystals were dissolved with DMSO (200 μL/well) and kept in dark for 30 min. The resulting purple color was quantified by measuring absorbance at 570 nm. The assays were performed thrice and the results were expressed in percentage in comparison to vehicle-treated cells. The following formula was used for calculation.
[formula] GI50 values were calculated using linear regression analysis.
Background: Tetrazolium assays rely on reduction of a dye to a coloured formazan, in cell work by metabolically active cells.

Data set [2] deals with palmitate-oleate induced steatotic HepG2 cells. Briefly: Reduction of Oil Red O stain in palmitate-oleate induced steatotic HepG2 cells. The conditions noted are these: Homo sapiens, PO-BSA 1 mM, 24 h, test materials 12.5-50 μM. As for the experimental part:
(§1) Induction of steatosis was done in accordance with the protocol of Hetherington and coworkers, Cell Physiol Biochem. 39:1648-62 (2016), with slight modification. HepG2 cells were loaded in 24-well cell culture plates at a density of 4×10^4 cells/well and kept overnight. On the next day, the media were replaced with fresh media containing PO-BSA at 1 mM concentration, with or without test materials (12.5-50 μM) dissolved in DMSO. The cells supplemented with media containing only BSA (instead of PO-BSA) and treated with DMSO (FIG. 2A) served as the normal control. The cells supplemented with media containing PO-BSA and treated with DMSO (FIG. 2B) served as negative control. Fenofibrate (12.5-50 μM) (FIG. 2C) was used as the positive control. After 24 h of treatment, the cells were taken for the analyses.
After treatment, the amount of lipids accumulated into the cells was measured using ORO staining. Briefly, 24 h after treatment, the spent media was removed and the cells were fixed by incubating them with 10% formalin in PBS for 1 h at room temperature. Each well was washed with 60% aqueous isopropanol and was allowed to dry. […] Cell morphology was assessed and photographed (400×) using an inverted microscope. The ORO stain was eluted with 100% isopropanol and measured at 500 nm. […] The results were expressed as the percentage of absorbance of the sample to the absorbance of the control blank.

Data set [3] has the same test system. The data set is described as follows: Lipoperoxide formation (MDA/TBARS) in palmitate-oleate induced HepG2 cells. The settings on record: 50 μM, 24 h. As for the experimental part: as §1
(§2) After treatment, the cells were harvested and lysed using 1×PBS under sonication at 3× for five second intervals at 40V setting over ice. The cell lysates were taken and estimated for TG and protein using commercial spectrophotometric kits. TG levels were normalized to the protein content, and results were expressed as mg TG/g protein. The MDA levels in the cell lysate were estimated using a commercial spectrophotometric kit. The levels of ALT were measured in the spent media, and cell lysate and percent ALT leakage was calculated using the following formula: […]

The test system is the same in data set [4]. Briefly: Triglyceride accumulation in palmitate-oleate induced HepG2 cells. The settings on record: 50 μM, 24 h. As for the experimental part:
as §1, §2

The test system is the same in data set [5]. The data set is described as follows: ALT leakage of palmitate-oleate induced HepG2 cells. The settings on record: 24 h. As for the experimental part:
as §1, §2

For the molecule `C=C1CC[C@@H]2[C@](C)(CO)[C@H](O)CC[C@@]2(C)[C@@H]1C/C=C1/C(=O)OC[C@H]1O` [AN, Andrographolide], growth in data set [1] was halved (GI50) at 254 µM. In addition, in data set [2], the concentration for a half-maximal effect (EC50) (in general, the midpoint of the concentration-response curve) worked out at 43.3 µM.

Take `CCC(=O)OCC1(C)[C@H](O)CC[C@@]2(C)C3C[C@@H](C4=CCOC4=O)O[C@]3(C)CC[C@H]12` (some centres unmarked) [IAN-19P, isoandrographolide-19-propionate]: in data set [1], the “toxicity compared with AN (MTT assay)” value was “comparatively lower toxicity than AN” and the 50% growth inhibitory concentration (GI50) (usually the concentration at which growth is held to half of that of the control) amounted to 27000 µM. The EC50 in data set [2] worked out at 8.92 µM. Besides, the lipoperoxide formation result in data set [3] was “significantly lowered”. In addition, in data set [4], the triglyceride level entry is recorded as “come to normal”. The ALT leakage result in data set [5] is “lowered ALT leakage”.

Source of the values: patent publication US10064841B1, “Isoandrographolide-19-propionate for treatment of non-alcoholic fatty liver disease (NAFLD)” (KING SAUD UNIVERSITY, priority 2018, dated 2018).
